Assay results published in patent US12491170B2, “Stable treprostinil prodrugs” (United Therapeutics Corporation, priority 2020, dated 2025).
Read-outs that look alike come from different tables or passages of the source.

Key:
[1] = Stability in human subcutaneous skin homogenate; settings: for Mono AUC (treprostinil formed) / AUC: human
[2] = target: T1, prostaglandin D2 (PGD2) receptor 1 (DP1) (Homo sapiens, UniProt Q13258); assay: DP1 receptor cAMP agonist assay (HEK293T cells); type: cell-based; settings: for DP1 Relative to Tre: relative to treprostinil EC50 values, * partial agonists or ambiguous dose-response curves; for Activity at the DP1 receptor compared to treprostinil: summary of findings
T1 sequence (Q13258 1-359): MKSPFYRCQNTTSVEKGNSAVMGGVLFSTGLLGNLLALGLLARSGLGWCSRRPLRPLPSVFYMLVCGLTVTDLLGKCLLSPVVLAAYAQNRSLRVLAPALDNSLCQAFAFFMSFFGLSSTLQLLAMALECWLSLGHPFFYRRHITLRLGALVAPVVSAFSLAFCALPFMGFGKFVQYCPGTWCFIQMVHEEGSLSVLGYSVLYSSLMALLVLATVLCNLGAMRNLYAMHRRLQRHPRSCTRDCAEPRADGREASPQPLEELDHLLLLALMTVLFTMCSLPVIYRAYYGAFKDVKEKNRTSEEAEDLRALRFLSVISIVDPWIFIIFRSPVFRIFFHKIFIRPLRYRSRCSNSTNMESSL
Protocol: Cyclic AMP assay kit: Multiscreen™ TR-FRET cAMP 1.0 No Wash Assay Kit (Multispan, Inc.)
Cells were thawed from frozen cells and resuspended in assay buffer at desired concentrations. cAMP or Calcium assays were performed according to the manufacturer's protocol using Multiscreen™ TR-FRET cAMP 1.0 No Wash Assay Kit or Multiscreen™ Calcium 1.0 No Wash Kit.
Gas Cyclic AMP (cAMP) Assay: In agonist mode testing, cells were seeded in a 384-well plate at an appropriate density and then were treated with compounds and incubated at 37° C. for 20 minutes. The reaction was terminated by […] trFluor™ Eu-labeled cAMP and trFluor™ 650-labeled anti-cAMP antibody in lysis buffer. […] All testing wells contained 0.1% DMSO in the final concentrations.
Data in graphs are represented in Mean±SD. Dose-dependent responses were fitted with sigmoidal dose-response curves allowing variable slopes using GraphPad Prism version 6 (Graphpad Prism).
These studies used cell lines overexpressing either human IP, EP2 or DP1, or EP1 receptors, and following incubation with varying concentrations of compounds, cAMP levels were measured using Fluorescence Resonance Energy Transfer (FRET).

[3] = rat

Row | Compound | Treprostinil Concentration 0 min [1] [µM] | Treprostinil Concentration 30 min [1] [µM] | Treprostinil Concentration 60 min [1] [µM] | Treprostinil Concentration 120 min [1] [µM] | Mono AUC (treprostinil formed) [1] [µmol·min/L] | DP1 Relative to Tre ([2]; Table 22) | AUC [3] [µmol·min/L] | AUC [1] [µmol·min/L] | DP1 Relative to Tre ([2]; Table 23) | Trep Concentration 0 min [1] [µM] | Trep Concentration 30 min [1] [µM] | Trep Concentration 60 min [1] [µM] | Trep Concentration 120 min [1] [µM] | Activity at the DP1 receptor compared to treprostinil [2] | EC50 Fold Different from Treprostinil, DP1 Receptor ([2]; Table 18, * partial agonists or odd dose-response curves) [x*]
1 | CCCCCC(CCC1C(OC(=O)OC)CC2Cc3c(cccc3OCC(=O)O)CC21)OC(=O)OC (stereo not drawn) [Prodrug LXXI, treprostinil dicarbonate] | – | – | – | – | 0.3108 | 2181x* | 33.51 | 0.3108 | 2181x* | – | – | – | – | – | –
2 | CCCCCC(CCC1C(O)CC2Cc3c(cccc3OCC(=O)O)CC21)OP(=O)(O)O (stereo not drawn) [Prodrug VI] | 0 | 0.6 | – | – | 91.95 | 2x | – | – | – | – | – | – | – | – | –
3 | CCCCCC(CCC1C(OC(=O)CC)CC2Cc3c(cccc3OCC(=O)O)CC21)OC(=O)CC (stereo not drawn) [Prodrug LXX, treprostinil dipropionate] | 0 | 0.0179 | – | – | 5.303 | 410x | 38.82 | 5.303 | 410x | 0 | 0.0179 | 0.0411 | 0.0972 | several hundred-fold less active | 410
4 | CCCCCC(CCC1C(O)CC2Cc3c(cccc3OCC(=O)O)CC21)OC(=O)CC (stereo not drawn) [Prodrug LV] | 0.0045 | 0.545 | – | – | 78.38 | 94x | – | – | – | – | – | – | – | – | –

Other lines, results leading:

Row | Treprostinil Concentration 0 min [1] [µM] | Treprostinil Concentration 30 min [1] [µM] | Treprostinil Concentration 60 min [1] [µM] | Treprostinil Concentration 120 min [1] [µM] | Mono AUC (treprostinil formed) [1] [µmol·min/L] | DP1 Relative to Tre ([2]; Table 22) | AUC [3] [µmol·min/L] | AUC [1] [µmol·min/L] | DP1 Relative to Tre ([2]; Table 23) | Trep Concentration 0 min [1] [µM] | Trep Concentration 30 min [1] [µM] | Trep Concentration 60 min [1] [µM] | Trep Concentration 120 min [1] [µM] | Activity at the DP1 receptor compared to treprostinil [2] | EC50 Fold Different from Treprostinil, DP1 Receptor ([2]; Table 18, * partial agonists or odd dose-response curves) [x*] | Compound
5 | 0.0034 | 0.382 | 0.583 | 0.839 | 62.92 | 272x | – | – | – | – | – | – | – | – | – | CCCCCC(CCC1C(O)CC2Cc3c(cccc3OCC(=O)O)CC21)OC(C)=O (stereo not drawn) [Prodrug XLIII]
6 | 0 | 0.02 | – | – | 7.512 | – | 10.02 | 7.512 | – | 0 | 0.02 | 0.0556 | 0.147 | several hundred-fold less active | – | treprostinil diacetate [Prodrug LXXII]
